Measured values: PubChem BioAssay (NCI)
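Tested at 5 concentrations; 48 h exposure; 96-well plates; endpoints linearly interpolated, else capped at highest concentration. TGI is the concentration that stops growth completely.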

Tests used:
Test in all cases: NCI anticancer screen, dose series, 48 h
[1] = tested on: 786-0 renal
[2] = tested on: A549 NSCLC
[3] = tested on: ACHN renal
[4] = tested on: BT-549 breast
[5] = tested on: CAKI-1 renal
[6] = tested on: CCRF-CEM leukemia
[7] = tested on: COLO 205 colon
[8] = tested on: DU-145 prostate
[9] = tested on: EKVX NSCLC
[10] = tested on: HCC-2998 colon
[11] = tested on: HCT-116 colon
[12] = tested on: HCT-15 colon
[13] = tested on: HOP-62 NSCLC
[14] = tested on: HT29 colon
[15] = tested on: IGROV1 ovarian
[16] = tested on: K-562 leukemia
[17] = tested on: KM12 colon
[18] = tested on: LOX IMVI melanoma
[19] = tested on: MCF7 breast
[20] = tested on: MDA-MB-231 breast
[21] = tested on: MDA-MB-435
[22] = tested on: MDA-N
[23] = tested on: NCI-H226 lung
[24] = tested on: NCI-H23 lung
[25] = tested on: NCI-H460 lung
[26] = tested on: NCI/ADR-RES ovarian
[27] = tested on: OVCAR-3 ovarian
[28] = tested on: OVCAR-4 ovarian
[29] = tested on: OVCAR-5 ovarian
[30] = tested on: PC-3 prostate
[31] = tested on: RXF 393 renal
[32] = tested on: SF-268 CNS
[33] = tested on: SF-295 CNS
[34] = tested on: SK-MEL-2 melanoma
[35] = tested on: SK-MEL-28 melanoma
[36] = tested on: SK-MEL-5 melanoma
[37] = tested on: SK-OV-3 ovarian
[38] = tested on: SN12C renal
[39] = tested on: SNB-19 CNS
[40] = tested on: SNB-75 CNS
[41] = tested on: SR leukemia
[42] = tested on: SW-620 colon
[43] = tested on: T-47D breast
[44] = tested on: TK-10 renal
[45] = tested on: U251 CNS
[46] = tested on: UACC-257 melanoma
[47] = tested on: UACC-62 melanoma
[48] = tested on: UO-31 renal
[49] = tested on: A498 renal
[50] = tested on: HL-60(TB) leukemia
[51] = tested on: HOP-92 NSCLC
[52] = tested on: HS 578T breast
[53] = tested on: M14 melanoma
[54] = tested on: MALME-3M melanoma
[55] = tested on: MOLT-4 leukemia
[56] = tested on: NCI-H522 lung
[57] = tested on: OVCAR-8 ovarian
[58] = tested on: RPMI-8226 leukemia
[59] = tested on: SF-539 CNS

Measured: TGI

COC(=O)C1(CCCCl)CCCN1C(=O)OC(C)(C)C (stereo not drawn)
> 100 µM: [1] | [2] | [3] | [4] | [5] | [6] | [7] | [8] | [9] | [10] | [11] | [12] | [13] | [14] | [15] | [16] | [17] | [18] | [19] | [20] | [21] | [22] | [23] | [24] | [25] | [26] | [27] | [28] | [29] | [30] | [31] | [32] | [33] | [34] | [35] | [36] | [37] | [38] | [39] | [40] | [41] | [42] | [43] | [44] | [45] | [46] | [47] | [48]

C(=NC12CC3CC(CC(C3)C1)C2)C1CCCCC1
> 100 µM: [1] | [49] | [2] | [3] | [4] | [5] | [6] | [7] | [8] | [9] | [10] | [11] | [12] | [50] | [13] | [51] | [52] | [14] | [15] | [16] | [17] | [53] | [54] | [19] | [20] | [21] | [22] | [55] | [23] | [24] | [25] | [56] | [26] | [27] | [28] | [29] | [57] | [30] | [58] | [31] | [32] | [33] | [59] | [34] | [36] | [38] | [39] | [40] | [41] | [42] | [44] | [45] | [46] | [47] | [48]
